As usually defined, the Cmax is the maximum level reached in the sampled fluid or tissue. For orientation: AUC(0-inf) means total exposure, with the tail of the curve extrapolated. Read a high AUC(0-inf) as more exposure. As a reminder, the Ki is the dissociation constant of the complex between target and ligand, obtained from inhibition or displacement. Usually bioavailability stands for dose-corrected exposure relative to a reference, in per cent. Low values mean little systemic uptake, high ones much systemic uptake. One may read the Papp A→B as how fast a substance crosses the layer from the apical side. In general, IC50 refers to the midpoint of a concentration-inhibition curve. A word on the AUC: it is the area under the concentration-time curve, a measure of exposure. A higher AUC goes with high exposure. In general, inhibition refers to the relative decrease from the control value, in per cent. In general, clearance refers to a measure of how efficiently the substance is removed, as volume per time. Read a low clearance as a low capacity for elimination.

This is an account of results in ChEMBL document CHEMBL4359811, “Development of Potent and Selective Pyrazolopyrimidine IRAK4 Inhibitors” (J Med Chem, 2019).

Molecules are shown by their SMILES.

Data set [1] can be described thus: Cmax in mouse at 10 mg/kg, po. Type of data set: ADME, organism-based. Also on record: dose 10 mg/kg, route oral. As to conditions: in vivo.
The nature of data set [2]: Cmax in mouse at 100 mg/kg, po administered as suspension in MCT. Also on record: dose 100 mg/kg, route oral. Type of data set: ADME, organism-based. The settings on record: in vivo.
Data set [3] in a line: Volume of distribution at steady state in mouse at 1 mg/kg, iv. In kind it is ADME, organism-based. The settings on record: in vivo, read-out: Vdss.
The nature of data set [4]: AUC (infinity) in mouse at 30 mg/kg, po. In kind it is ADME, organism-based. More on the design: dose 30 mg/kg, time infinity, route oral. The settings on record: in vivo.
Data set [5] addresses T1, Interleukin-1 receptor-associated kinase 4 (Homo sapiens, UniProt Q9NWZ3).
T1 sequence (Q9NWZ3 whole entry): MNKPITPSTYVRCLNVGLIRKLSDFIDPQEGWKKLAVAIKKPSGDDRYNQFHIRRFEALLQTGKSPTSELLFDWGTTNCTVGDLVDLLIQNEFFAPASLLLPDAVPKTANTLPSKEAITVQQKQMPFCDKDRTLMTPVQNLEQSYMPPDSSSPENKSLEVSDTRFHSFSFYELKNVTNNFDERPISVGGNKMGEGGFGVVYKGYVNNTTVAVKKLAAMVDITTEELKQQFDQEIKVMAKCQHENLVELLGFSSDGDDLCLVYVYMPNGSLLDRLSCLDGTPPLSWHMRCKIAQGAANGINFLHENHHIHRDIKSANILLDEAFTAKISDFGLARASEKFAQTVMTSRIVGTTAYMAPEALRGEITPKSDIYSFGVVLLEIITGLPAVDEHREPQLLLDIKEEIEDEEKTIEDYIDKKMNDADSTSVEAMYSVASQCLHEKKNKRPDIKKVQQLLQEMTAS
The data set can be described thus: Inhibition of human recombinant full length His6-tagged IRAK4 expressed in baculovirus expression system using H-KKARFSRFAGSSPSQSSMVAR as substrate incubated for 90 mins by fluorescence polarisation assay. In general terms: Fluorescence polarisation rises when a labelled molecule tumbles more slowly, as on binding a larger partner.

The nature of data set [6]: Oral bioavailability in mouse at 30 mg/kg. In kind it is ADME, organism-based. As to conditions: in vivo.
The nature of data set [7]: Protein binding in human plasma at 5 uM incubated for 4 hrs by LC-MS/MS analysis. In kind it is ADME, cell-free. The settings on record: read-out: PPB (converted).
The nature of data set [8]: AUC (infinity) in mouse at 5 mg/kg, po. Type of data set: ADME, organism-based. More on the design: dose 5 mg/kg, route oral, time infinity. The settings on record: in vivo.
A short description of data set [9]: Apparent permeability from apical to basolateral side in MDCK cells at 10 uM incubated for 180 mins and measured up to 180 min by LC-MS/MS analysis. The settings on record: dog. In kind it is ADME, cell-based, Canis lupus familiaris.
Data set [10] addresses T1, Interleukin-1 receptor-associated kinase 4. The data set can be described thus: Inhibition of IRAK4 in human THP1-Xblue-MD2-CD14 cells assessed as reduction in LPS-induced NFkappaB transcription by measuring alkaline phosphatase level preincubated for 1 hr followed by LPS stimulation and measured after 20 hrs by quanti-blue reagent based reporter assay. For orientation: A reporter such as luciferase makes a cellular process visible.

Data set [11] in a line: AUC (infinity) in mouse at 10 mg/kg, po. In kind it is ADME, organism-based. More on the design: dose 10 mg/kg, route oral, time infinity. As to conditions: in vivo.
Data set [12] can be described thus: Cmax in mouse at 30 mg/kg, po. In kind it is ADME, organism-based. More on the design: dose 30 mg/kg, route oral. The settings on record: in vivo.
Data set [13] is described as follows: Kinetic aqueous solubility of the compound in PBS buffer at pH 7.4 incubated for 24 hrs under shaking condition by LC-CLND assay. In kind it is physicochemical. As to conditions: buffer, pH 7.4, 24 h.
A short description of data set [14]: Oral bioavailability in mouse at 100 mg/kg administered as suspension in MCT. In kind it is ADME, organism-based. The settings on record: in vivo.
Data set [15] can be described thus: Oral bioavailability in mouse at 10 mg/kg. Type of data set: ADME, organism-based. As to conditions: in vivo.
A short description of data set [16]: AUC (infinity) in mouse at 100 mg/kg, po administered as suspension in MCT. Also on record: dose 100 mg/kg, time infinity, route oral. Type of data set: ADME, organism-based. The settings on record: in vivo.
The target in data set [17] is T2, Interleukin-1 receptor-associated kinase 4 (Homo sapiens) (UniProt Q9NWZ3).
T2 sequence (whole entry): T1 sequence (Q9NWZ3 whole entry)
The experiment in a line: Inhibition of human recombinant full length His6-tagged IRAK4 expressed in baculovirus expression system at 1 uM relative to control.

For data set [18], the target named is Interleukin-1 receptor-associated kinase 1 (Homo sapiens, UniProt P51617). The experiment in a line: Inhibition of human recombinant full length N-terminal His6-tagged IRAK1 (Argl94 to Ser712 residues) expressed in insect cells using H-KKARFSRFAGSSPSQSSMVAR as substrate incubated for 60 mins by fluorescence polarisation assay.
Chain of Interleukin-1 receptor-associated kinase 1 (P51617 whole entry): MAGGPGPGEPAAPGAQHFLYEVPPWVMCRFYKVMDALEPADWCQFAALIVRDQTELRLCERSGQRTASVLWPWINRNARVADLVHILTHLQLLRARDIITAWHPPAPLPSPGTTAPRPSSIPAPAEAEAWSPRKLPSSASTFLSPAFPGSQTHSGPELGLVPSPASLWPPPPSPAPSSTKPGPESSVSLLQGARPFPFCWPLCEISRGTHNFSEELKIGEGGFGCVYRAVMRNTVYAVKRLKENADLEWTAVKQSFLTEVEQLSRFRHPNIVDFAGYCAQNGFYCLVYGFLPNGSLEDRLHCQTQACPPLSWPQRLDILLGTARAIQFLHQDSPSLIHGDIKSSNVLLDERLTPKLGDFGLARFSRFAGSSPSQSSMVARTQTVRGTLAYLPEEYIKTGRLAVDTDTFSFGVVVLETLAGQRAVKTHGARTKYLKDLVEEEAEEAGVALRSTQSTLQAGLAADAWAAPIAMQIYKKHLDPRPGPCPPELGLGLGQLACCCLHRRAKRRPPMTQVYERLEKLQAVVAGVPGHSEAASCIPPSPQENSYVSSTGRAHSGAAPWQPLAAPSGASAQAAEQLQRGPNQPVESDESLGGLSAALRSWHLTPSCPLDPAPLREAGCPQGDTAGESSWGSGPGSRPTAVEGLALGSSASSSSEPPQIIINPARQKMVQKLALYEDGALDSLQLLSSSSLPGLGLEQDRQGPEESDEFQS
Data set [19] in a line: Cmax in mouse at 5 mg/kg, po. In kind it is ADME, organism-based. Also on record: dose 5 mg/kg, route oral. As to conditions: in vivo, read-out: Cmax.
Data set [20] is described as follows: Oral bioavailability in mouse at 5 mg/kg. In kind it is ADME, organism-based. The settings on record: in vivo.
Data set [21] can be described thus: Protein binding in mouse plasma at 5 uM incubated for 4 hrs by LC-MS/MS analysis. Type of data set: ADME, cell-free. As to conditions: read-out: PPB (converted).
A short description of data set [22]: Blood clearance in mouse at 1 mg/kg, iv. Type of data set: ADME, organism-based. The settings on record: whole blood.

On to `O=C(Nc1cc2sc(N3CCOCC3)nc2cc1N1CCOCC1)c1cnn2cccnc12`, for which the Cmax in data set [1] came out at 1.3 µM; in [2], 3.3 µM; in data set [12] it was 2 µM; in [19], 0.2 µM. Besides, the Vd in [3] was 0.9 L/kg. For the same molecule, the results for the AUC(0-inf) in [4] and in [8] were 11 µM·h and 0.6 µM·h, respectively. The results for the Ki in [5] and in data set [18] were 0.0008 µM and 0.19 µM, respectively. Moreover, the results for the bioavailability in data set [6] and in [20] were 12% and 5%, respectively. Further, the fraction unbound at 4 h, 5 µM in data set [7] was 0.05; in data set [21], 0.01. In data set [9], the Papp A→B at 3 h, 10 µM was 120 nm/s. Besides, the IC50 in data set [10] worked out at 0.076 µM. In addition, the AUC was determined as 12 µM·h in [11] and 40 µM·h in [16]. The Kinetic_solubility result in [13] is “Insoluble”. Also, the F was 6% in data set [14] and 25% in data set [15]. Also, the inhibition in data set [17] was greater than 70%.
With `Cn1c(N2CCOCC2)nc2cc(N3CCC(CO)CC3)c(NC(=O)c3cnn4cccnc34)cc21`, the Vd in data set [3] turned out to be 0.4 L/kg. Moreover, the results for the Ki in data set [5] and in data set [18] were 0.0018 µM and greater than 6.1 µM, respectively. Also, the values for the fraction unbound at 4 h, 5 µM in data set [7] and in data set [21] were 0.12 and 0.05, respectively. In addition, in [8], the total exposure AUC(0-inf) was 0.5 µM·h. For the same molecule, in data set [9], the Papp A→B at 3 h, 10 µM came out at 24 nm/s. Besides, in data set [10], the IC50 is 0.097 µM. Further, the Cmax in data set [19] was 0.2 µM. The molecule further gave a clearance in [22] of 1.38 L/h/kg. This molecule also came in with a bioavailability in data set [20] of 3%.
